Results reported in patent US11787796B2, “Plasma Kallikrein inhibitors and uses thereof” (Takeda Pharmaceutical Company Limited, priority 2019, dated 2023).

Biological target: human activated kallikrein enzyme (Homo sapiens (Human), UniProt P03952)
Assay: Plasma kallikrein inhibition assay with fluorogenic peptide substrate, 500 pM activated kallikrein format
Assay type: biochemical
Details: 500 pM activated kallikrein; 300 uM Pro-Phe-Arg-7-amido-4-methylcoumarin substrate; 30 min preincubation, 10 min reaction at RT; read-out: Primary Dose Response Assay: Average EC50
How it was run: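 Human activated kallikrein (500 pM format) was preincubated 30 min at RT with inhibitor in 20 mM Tris pH 7.5, 150 mM NaCl, 1 mM EDTA, 0.1% PEG-400, 0.1% Triton X-100. Reactions then ran 10 min at RT with 300 uM Pro-Phe-Arg-AMC. Fluorescence was read at ex 380/em 460 nm.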

Sequence of human activated kallikrein enzyme (P03952 391-638): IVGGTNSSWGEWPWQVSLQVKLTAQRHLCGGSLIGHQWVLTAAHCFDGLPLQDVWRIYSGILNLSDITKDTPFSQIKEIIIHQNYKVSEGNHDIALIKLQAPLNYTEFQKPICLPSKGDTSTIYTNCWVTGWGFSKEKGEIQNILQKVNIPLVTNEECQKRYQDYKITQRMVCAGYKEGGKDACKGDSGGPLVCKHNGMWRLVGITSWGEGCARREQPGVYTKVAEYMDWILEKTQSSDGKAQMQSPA
Sequence of human activated kallikrein enzyme (P03952 20-390 partner): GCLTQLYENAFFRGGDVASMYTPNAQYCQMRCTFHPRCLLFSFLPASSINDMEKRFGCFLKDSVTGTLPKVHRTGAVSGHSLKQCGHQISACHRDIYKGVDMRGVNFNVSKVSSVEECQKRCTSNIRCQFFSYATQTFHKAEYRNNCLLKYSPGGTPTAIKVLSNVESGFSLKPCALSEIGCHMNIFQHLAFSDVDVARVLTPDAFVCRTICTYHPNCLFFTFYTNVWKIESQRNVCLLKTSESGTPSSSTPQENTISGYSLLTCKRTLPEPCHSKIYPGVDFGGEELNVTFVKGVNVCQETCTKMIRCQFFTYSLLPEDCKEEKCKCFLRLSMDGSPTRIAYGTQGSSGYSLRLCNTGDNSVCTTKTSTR

Compound	EC50
NCc1cc2c(cn1)N(C(=O)c1cn(Cc3cn4cc(C5CC5)ccc4n3)nn1)CC2 [Example I-147, (5-(aminomethyl)-2,3-dihydro-1H-pyrrolo[2,3-c]pyridin-1-yl)(1-((6-cyclopropylimidazo[1,2-a]pyridin-2-yl)methyl)-1H-1,2,3-triazol-4-yl)methanone]	100 to 2000 nM
O=C(NCc1cc2c(cn1)NCC2)c1cn(Cc2cn3cc(C4CC4)ccc3n2)nn1 [Example I-148, 1-((6-cyclopropylimidazo[1,2-a]pyridin-2-yl)methyl)-N-((2,3-dihydro-1H-pyrrolo[2,3-c]pyridin-5-yl)methyl)-1H-1,2,3-triazole-4-carboxamide]	100 to 2000 nM
O=C(NCc1cc2c(cn1)CCCO2)c1cn(Cc2cn3cc(C4CC4)ccc3n2)nn1 [Example I-150, 1-((6-cyclopropylimidazo[1,2-a]pyridin-2-yl)methyl)-N-((3,4-dihydro-2H-pyrano[3,2-c]pyridin-7-yl)methyl)-1H-1,2,3-triazole-4-carboxamide]	100 to 2000 nM
O=C(NC1Cc2ccc(Cl)cc21)c1cn(Cc2cn3cc(C4CC4)ccc3n2)nn1 (stereo not drawn) [Example I-151, N-(4-chlorobicyclo[4.2.0]octa-1(6),2,4-trien-7-yl)-1-((6-cyclopropylimidazo[1,2-a]pyridin-2-yl)methyl)-1H-1,2,3-triazole-4-carboxamide]	100 to 2000 nM
O=C(NCc1nccc(OC(F)F)c1F)c1cn(Cc2cn3cc(C4CC4)cc(N4CCN(CC(F)(F)F)CC4)c3n2)nn1 [Example I-152, 1-((6-cyclopropyl-8-(4-(2,2,2-trifluoroethyl)piperazin-1-yl)imidazo[1,2-a]pyridin-2-yl)methyl)-N-((4-(difluoromethoxy)-3-fluoropyridin-2-yl)methyl)-1H-1,2,3-triazole-4-carboxamide]	100 to 2000 nM

Next, values leading:

EC50	Compound
1 to 10 nM	O=C(NCc1cc2cc[nH]c2cn1)c1cn(Cc2cn3cc(C4CC4)ccc3n2)nn1 [Example I-144, N-((1H-pyrrolo[2,3-c]pyridin-5-yl)methyl)-1-((6-cyclopropylimidazo[1,2-a]pyridin-2-yl)methyl)-1H-1,2,3-triazole-4-carboxamide]
100 to 2000 nM	O=C(NCc1nccc(Cl)n1)c1cn(Cc2cn3cc(C4CC4)ccc3n2)nn1 [Example I-145, N-((4-chloropyrimidin-2-yl)methyl)-1-((6-cyclopropylimidazo[1,2-a]pyridin-2-yl)methyl)-1H-1,2,3-triazole-4-carboxamide]
1 to 10 nM	O=C(NCc1cc2c(Cl)c[nH]c2cn1)c1cn(Cc2cn3cc(C4CC4)ccc3n2)nn1 [Example I-146, N-((3-chloro-1H-pyrrolo[2,3-c]pyridin-5-yl)methyl)-1-((6-cyclopropylimidazo[1,2-a]pyridin-2-yl)methyl)-1H-1,2,3-triazole-4-carboxamide]
10 to 100 nM	O=C(NCc1cc2c(cn1)NCCO2)c1cn(Cc2cn3cc(C4CC4)ccc3n2)nn1 [Example I-149, 1-((6-cyclopropylimidazo[1,2-a]pyridin-2-yl)methyl)-N-((3,4-dihydro-2H-pyrido[4,3-b][1,4]oxazin-7-yl)methyl)-1H-1,2,3-triazole-4-carboxamide]
1 to 10 nM	CN1CCN(c2cc(C3CC3)cn3cc(Cn4cc(C(=O)NCc5nccc(OC(F)F)c5F)nn4)nc23)CC1 [Example I-153]
1 to 10 nM	Cc1[nH]nc2c1CC[C@H]2NC(=O)c1cn(Cc2cn3cc(C4CC4)ccc3n2)nn1 [Example I-154]
1 to 10 nM	Cc1[nH]nc2c1CC[C@H]2NC(=O)c1cnn(Cc2cn3cc(C4CC4)ccc3n2)c1 [Example I-155]
